Entries after “also recorded” stand apart in the source; their conditions may differ.
System: TGFβ1-induced expression of α-SMA protein in human HSC
Test: α-SMA ELISA in TGFβ1-activated human hepatic stellate cells
Type: cell-based
Details: TGFβ1 1 ng/ml, 48 h
Description: Serum-deprived HSC were preincubated for 1 hour with RM-5061 before the activation with the profibrogenic cytokine TGFβ1 (1 ng/ml). After 48 hours of incubation, the α-SMA content was measured by ELISA. The obtained values were transformed into percentage inhibition over TGFβ1 control. Data are presented as mean (quadruplicates)±standard error of the mean (SEM). Statistical analyses were performed by one-way ANOVA followed by Bonferroni post-hoc tests, using Sigma Plot 11.0 software. [*: p<0.05; **: p<0.01; ***: p<0.001 (comparison versus TGFβ1 1 ng/mL group)]. The curve fitting and the calculation of half maximal inhibitory concentration (IC50) were performed with XLFit software 5.3.1.3.
Serum-deprived HSC were preincubated for 1 hour with Cpd.5 before the activation with the profibrogenic cytokine TGFβ1 (1 ng/ml). After 48 hours of incubation, the expression of α-SMA was measured by ELISA. The obtained values were transformed into percentage inhibition over TGFβ1 control. Data are presented as mean (triplicates)±standard deviation (SD). Statistical analyses were performed by one-way ANOVA followed by Bonferroni post-hoc tests, using Sigma Plot 11.0 software. [*: p<0.05; **: p<0.01; ***: p<0.001 (comparison versus TGFμ1 1 ng/mL group)]. The curve fitting and the calculation of half maximal inhibitory concentration (IC50) were performed with XLFit software 5.3.1.3.
The human primary hepatic stellate cells (hHSC) (Innoprot) were cultured in STeCM medium (ScienCell cat #5301) that was supplemented with 2% fetal bovine serum (FBS, ScienCell cat #0010), 1% penicillin/streptomycin (ScienCell cat #0503) and stellate cell growth supplement (SteCGS; ScienCell cat #5352). Cell culture flasks were coated with Poly-L Lysine (Sigma cat #P4707) for a better adherence.
The human primary hepatic stellate cells (hHSC) (Innoprot) were cultured under standard conditions, as described above. The cells were subsequently plated at a density of 2×10^4cells/well or 6,5×10^3 cells/well into 96-well or 384-well plates respectively. The next day, cell-culture medium was removed, and cells were washed with PBS (Invitrogen cat #14190). Then, hHSC were deprived for 24 hours in serum-free and SteCGS-free medium. For the treatments with compounds of formula (I), the serum-deprived hHSC were preincubated for 1 hour with the compounds followed by addition of the profibrogenic stimuli TGFβ1 (PeproTech cat #100-21, 1 ng/mL) in serum-free and SteCGS-free medium for an additional 48 hour period. At the end of treatment, the cell culture supernatants of treated-HSC were transferred into a new plate before storage at −20° C.The cells were washed with PBS (Invitrogen, cat #14190) before the addition of lysis buffer (CelLytic™ MT reagent; Sigma #C3228). Plates were then incubated for 30 min on ice using a plate shaker, before storage at −20° C.
The level of α-SMA was measured using a Sandwich ELISA. Briefly, the wells of an ELISA plate were first coated with the capture antibody (mouse monoclonal anti-ACTA2, Abnova) at 4° C. overnight. After 3 washes in PBS +0.2% Tween 20, a blocking solution consisting of PBS +0.2% BSA was added for one hour followed by another washing cycle. The cell lysates were transferred into the wells for binding to the capture antibody for a period of 2 h at room temperature. After the washing procedure, the detection antibody (biotinylated mouse monoclonal anti-ACTA2, Abnova) was added for 2 hours at room temperature followed by 3 washes. For the detection, an HRP-conjugated Streptavidin (R&D Systems cat #DY998) was first applied for 30 min at room temperature. After washing, the HRP substrate TMB (;BD, #555214) was added and incubated for 7 min at room temperature in the dark. Upon oxidation, TMB forms a water-soluble blue reaction product that becomes yellow with addition of sulfuric acid (solution stop), enabling accurate measurement of the intensity at 450 nm using a spectrophotometer. […]

Row | Structure (SMILES) | effect on TGFβ1-induced α-SMA level in human HSC | Max % I Over TGFβ, αSMA [%]
1 | [2H]C([2H])([2H])C(=O)Oc1ccccc1C(=O)Nc1ncc([N+](=O)[O-])s1 [Cpd.5, 2-[(5-nitro-1,3-thiazol-2-yl)carbamoyl]phenyl (d3)ethanoate] | inhibits | –
2 | CC(C)(C)[C@H](N)C(=O)Oc1ccccc1C(=O)Nc1ncc([N+](=O)[O-])s1 [RM-5061, (S)-2-(5-nitrothiazol-2-ylcarbamoyl)phenyl 2-amino-3,3-dimethylbutanoate] | dose-dependently reduced; also recorded: inhibits | 40

Source: patent US20170290814A1, “METHODS OF TREATMENT OF CHOLESTASIS AND FIBROSIS” (GENFIT, priority 2016, published 2017)
